tested on: Phosphorylation of ERK1/2 in MIA PaCa-2 cells; assay: Phospho-ERK1/2 MSD assay in MIA PaCa-2 cells; type: cell-based; settings: Homo sapiens, MIA PaCa-2, 2 h, read-out: p-ERK IC50 (2 h; MIA PaCa-2), 2 h compound treatment
Description: For compounds in Table 89, the following assay conditions were employed:
Phospho-ERK1/2 MSD Assay:
Sixteen hours prior to compound treatment, MIA PaCa-2 or A549 cells were seeded in 96-well cell culture plates at a density of 25,000 cells/well and incubated at 37° C., 5% CO2. A compound dose-response titration was diluted in growth media, added to appropriate wells of a cell culture plate, and then incubated at 37° C., 5% CO2 for 2 or 4 hours (see Table 15). Following compound treatment, cells were stimulated with 10 ng/mL EGF (Roche 11376454001) for 10 min, washed with ice-cold Dulbecco's phosphate-buffered saline, no Ca^2+ or Mg^2+ (ThermoFisher Scientific 14190144), and then lysed in RIPA buffer (50 mM Tris-HCl pH 7.5, 1% Igepal, 0.5% sodium deoxycholate, 150 mM NaCl, and 0.5% sodium dodecyl sulfate) containing protease inhibitors (Roche 4693132001) and phosphatase inhibitors (Roche 4906837001). Phosphorylation of ERK1/2 in compound-treated lysates was assayed using Phospho-ERK1/2 Whole Cell Lysate kits (Meso Scale Discovery K151DWD) according to the manufacturer's protocol. Assay plates were read on a Meso Scale Discovery Sector Imager 6000, and data were analyzed using a 4-parameter logistic model to calculate IC50 values.

Row | Compound | IC50
1 | C=CC(=O)N1CCN(c2nc(=O)n(-c3c(C(C)C)ccnc3C)c3nc(-c4c(O)cccc4F)c(Cl)cc23)[C@@H](C)C1 [Example 54-17, 6-chloro-7-(2-fluoro-6-hydroxy-phenyl)-1-(2-methyl-4-(2-propanyl)-3-pyridinyl)-4-((2S)-2-methyl-4-(2-propenoyl)-1-piperazinyl) pyrido[2,3-d]pyrimidin-2(1H)-one] | 504 nM
2 | C=CC(=O)N1CCN(c2nc(=O)n(-c3ccccc3C(C)C)c3nc(-c4ccccc4O)c(Cl)cc23)[C@@H](C)C1 [Example 54-43, 6-chloro-7-(2-hydroxyphenyl)-4-((2S)-2-methyl-4-(2-propenoyl)-1-piperazinyl)-1-(2-(2-propanyl)phenyl)pyrido [2,3-d]pyrimidin-2(1H)-one] | 251 nM
3 | C=CC(=O)N1CCN(c2nc(=O)n(-c3c(C(C)C)ncnc3C(C)C)c3nc(-c4c(O)cccc4F)c(Cl)cc23)[C@@H](C)C1 [Example 55-2] | 25 nM
4 | C=CC(=O)N1CCN(c2nc(=O)n(-c3c(C)ncnc3C(C)C)c3nc(-c4c(O)cccc4F)c(F)cc23)[C@@H](C)C1 [Example 58-11, 6-fluoro-7-(2-fluoro-6-hydroxyphenyl)-1-(4-methyl-6-(2-propanyl)-5-pyrimidinyl)-4-((2S)-2-methyl-4-(2-propenoyl)-1-piperazinyl)pyrido[2,3-d]pyrimidin-2(1H)-one] | 742 nM
5 | C=CC(=O)N1CCN(c2nc(=O)n(-c3c(C(C)C)ccnc3C)c3nc(-c4c(O)cccc4F)c(F)cc23)[C@@H](C)C1 [Example 58-15, 6-fluoro-7-(2-fluoro-6-hydroxyphenyl)-1-(2-methyl-4-(2-propanyl)-3-pyridinyl)-4-((2S)-2-methyl-4-(2-propenoyl)-1-piperazinyl)pyrido[2,3-d]pyrimidin-2(1H)-one] | 365 nM
6 | C=CC(=O)N1CCN(c2nc(=O)n(-c3ccccc3C(C)C)c3nc(N4CCCC4)c(Cl)cc23)[C@@H](C)C1 [Example 69-3, 6-chloro-4-((2S)-2-methyl-4-(2-propenoyl)-1-piperazinyl)-1-(2-(2-propanyl)phenyl)-7-(1-pyrrolidinyl)pyrido[2,3-d]pyrimidin-2(1H)-one] | 1700 nM
7 | C=CC(=O)N1CCN(c2nc(C)c(-c3ccccc3C3CC3)c3nc(-c4ccccc4F)c(Cl)cc23)CC1 [Example 85-3, 1-(4-(3-chloro-8-(2-cyclopropylphenyl)-2-(2-fluorophenyl)-7-methyl-1,6-naphthyridin-5-yl)-1-piperazinyl)-2-propen-1-one] | 10000 nM

The next lines start with the values.

Row | IC50 | Compound
8 | 88 nM | C=CC(=O)N1CCN(c2nc(=O)n(-c3c(C)cnn3C(C)C)c3nc(-c4c(O)cccc4F)c(Cl)cc23)[C@@H](C)C1 [Example 54-70, 6-chloro-7-(2-fluoro-6-hydroxyphenyl)-1-(4-methyl-1-(2-propanyl)-1H-pyrazol-5-yl)-4-((2S)-2-methyl-4-(2-propenoyl)-1-piperazinyl) pyrido[2,3-d]pyrimidin-2(1H)-one]
9 | 134 nM | C=CC(=O)N1CCN(c2nc(=O)n(-c3c(C)ncnc3C(C)C)c3nc(-c4c(O)cccc4F)c(Cl)cc23)[C@@H](C)C1 [Example 55-14, 6-chloro-7-(2-fluoro-6-hydroxyphenyl)-1-(4-methyl-6-(2-propanyl)-5-pyrimidinyl)-4-((2S)-2-methyl-4-(2-propenoyl)-1-piperazinyl)pyrido[2,3-d]pyrimidin-2(1H)-one]
10 | 272 nM | C=CC(=O)N1CCN(c2nc(=O)n(-c3c(C)cccc3C(C)C)c3nc(-c4c(O)cccc4F)c(F)cc23)[C@@H](C)C1 [Example 58-18, 6-fluoro-7-(2-fluoro-6-hydroxyphenyl)-1-(2-methyl-6-(2-propanyl)phenyl)-4-((2S)-2-methyl-4-(2-propenoyl)-1-piperazinyl)pyrido[2,3-d]pyrimidin-2(1H)-one]
11 | 10000 nM | C=CC(=O)N1CCN(c2nc(C)c(-c3ccccc3C(C)C)c3nc(-c4ccccc4F)c(Cl)cc23)[C@@H](C)C1 [Example 85-4, 1-((3S)-4-(3-chloro-2-(2-fluorophenyl)-7-methyl-8-(2-(2-propanyl)phenyl)-1,6-naphthyridin-5-yl)-3-methyl-1-piperazinyl)-2-propen-1-one]
12 | 3330 nM | C=CC(=O)N1CCN(c2nc(CO)cc3nc(-c4ccccc4F)c(Cl)cc23)[C@@H](C)C1 [Example 150, 1-((3S)-4-(3-Chloro-2-(2-fluorophenyl)-7-(hydroxymethyl)-1,6-naphthyridin-5-yl)-3-methyl-1-piperazinyl)-2-propen-1-one]

same assay, conditions: Homo sapiens, MIA PaCa-2, 4 h, read-out: p-ERK IC50 (4 h; MIA PaCa-2), 4 h compound treatment

Row | IC50 | Compound
13 | 2250 nM | C=CC(=O)N1CCN(c2nc(=O)n(CC3(C(F)(F)F)CC3)c3nc(-c4ccccc4F)c(Cl)cc23)CC1 [Example 60-4, 6-chloro-7-(2-fluorophenyl)-4-(4-(2-propenoyl)-1-piperazinyl)-1-((1-(trifluoromethyl)cyclopropyl)methyl)pyrido[2,3-d]pyrimidin-2(1H)-one]

same assay, conditions: read-out: p-ERK IC50 (2 h; MIA PaCa-2), 2 h compound treatment

Row | Compound | IC50
14 | C=CC(=O)N1CCN(c2nc(=O)n(-c3c(C)cccc3C(C)C)c3nc(-c4ccccc4F)c(Cl)cc23)[C@@H](C)C1 (atropisomer, axis not shown; (M)) [Example 64-1, (M)-6-Chloro-7-(2-fluorophenyl)-1-(2-methyl-6-(2-propanyl)phenyl)-4-((2S)-2-methyl-4-(2-propenoyl)-1-piperazinyl)pyrido[2,3-d]pyrimidin-2(1H)-one] | 76 nM
15 | C=CC(=O)N1CCN(c2nc(=O)n(-c3c(C)cccc3CC)c3nc(-c4c(O)cccc4F)c(Cl)cc23)[C@@H](C)C1 (single isomer, unassigned) [Example 55-8-2] | 160 nM
16 | C=CC(=O)N1CCN(c2nc(=O)n(-c3ccccc3C(C)C)c3nc(-c4c(O)cccc4F)c(Cl)cc23)CC1 (single isomer, unassigned) [Example 60-24-2, (P)-6-chloro-7-(2-fluoro-6-hydroxyphenyl)-1-(2-(2-propanyl)phenyl)-4-(4-(2-propenoyl)-1-piperazinyl)pyrido[2,3-d]pyrimidin-2(1H)-one] | 704 nM
17 | C=CC(=O)N1CCN(c2nc(=O)n(-c3ccccc3C(C)C)c3cc(-c4ccccc4F)c(Cl)cc23)CC1 (single isomer, unassigned) [Example 88-2, 6-chloro-7-(2 fluorophenyl)-1-(2-(2-propanyl)phenyl)-4-(4-(2-propenoyl)-1-piperazinyl)-2(1H)-quinazolinone] | 1650 nM

The next lines start with the values.

Row | IC50 | Compound
18 | 109 nM | 6-Chloro-7-(2-fluoro-6-hydroxyphenyl)-4-((2S)-2-methyl-4-(2-propenoyl)-1-piperazinyl)-1-(2-(methylsulfonyl)phenyl)pyrido[2,3-d]pyrimidin-2(1H)-one [Example 54-1]
19 | 1090 nM | C=CC(=O)N1CCN(c2nc(=O)n(-c3c(C)ncnc3C(C)C)c3nc(-c4c(O)cccc4F)c(Cl)cc23)[C@@H](C)C1 (single isomer, unassigned) [Example 55-14-1]
20 | 715 nM | C=CC(=O)N1CCN(c2nc(=O)n(-c3c(C)cccc3C(C)C)c3nc(-c4c(O)cccc4F)c(F)cc23)[C@@H](C)C1 (single isomer, unassigned) [Example 58-18-2]

same assay, conditions: read-out: p-ERK IC50 (4 h; MIA PaCa-2), 4 h compound treatment

Row | IC50 | Compound
21 | 976 nM | C=CC(=O)N1CCN(c2nc(=O)n(-c3ccccc3C(C)C)c3nc(-c4c(O)cccc4F)c(Cl)cc23)CC1 (single isomer, unassigned) [Example 60-24-2, (P)-6-chloro-7-(2-fluoro-6-hydroxyphenyl)-1-(2-(2-propanyl)phenyl)-4-(4-(2-propenoyl)-1-piperazinyl)pyrido[2,3-d]pyrimidin-2(1H)-one]

molecular target: GDP-bound KRAS protein (aa 1-169), containing both G12C and C118A amino acid substitutions (Homo sapiens, UniProt P01116, C118A/G12C); assay: Coupled nucleotide exchange assay (SOS-mediated, AlphaScreen); type: biochemical; settings: read-out: Coupled exchange IC50 (5 min); 5 min compound pre-incubation

Row | IC50 | Compound
22 | 225 nM | 6-Chloro-7-(2-fluoro-6-hydroxyphenyl)-4-((2S)-2-methyl-4-(2-propenoyl)-1-piperazinyl)-1-(2-(methylsulfonyl)phenyl)pyrido[2,3-d]pyrimidin-2(1H)-one [Example 54-1]
23 | 44 nM | C=CC(=O)N1CCN(c2nc(=O)n(-c3c(C)cccc3C(C)C)c3nc(-c4ccccc4F)c(Cl)cc23)[C@@H](C)C1 (atropisomer, axis not shown; (M)) [Example 64-1, (M)-6-Chloro-7-(2-fluorophenyl)-1-(2-methyl-6-(2-propanyl)phenyl)-4-((2S)-2-methyl-4-(2-propenoyl)-1-piperazinyl)pyrido[2,3-d]pyrimidin-2(1H)-one]

From US11090304B2 (Amgen Inc., priority 2018, dated 2021)
